# Data taken from article PMC7905067, “Design and Immunological Evaluation of a Hybrid Peptide as a Potent TLR2 Agonist by Structure-Based Virtual Screening” (Frontiers in Cell and Developmental Biology, 2021).
# Read-outs that look alike come from different tables or passages of the source.
# Legend:
# [1] = tested on: TLR2-NF-κB signaling pathway; assay: Western blot of TLR2-NF-κB signaling pathway; assay type: in vivo, BALB/c mice; details: proteins from serum, three independent experiments
# Experimental: (§1) After a 7-day adaptation period, the mice were randomly divided into five groups (n = 12 in each group): (1) control group: physiological saline was injected intraperitoneally once daily; (2) cyclophosphamide (CTX) group: CTX (80 mg/kg mouse weight; Sigma-Aldrich, St. Louis, MO, United States) was injected intraperitoneally once daily for the first 3 days. […] From days 4 to 10, peptide (10 mg/kg mouse weight) was injected intraperitoneally into mice once daily. Twenty-four hours after the last drug administration, all the mice were weighed and then euthanized, and their tissues and blood were collected for further study. The body weight index was calculated according to the formula: […]
# Whole proteins were extracted from the serum using a whole-protein extraction kit (Nanjing KeyGEN Biotech, Nanjing, China). The protein concentrations were determined with the BCA Assay (KeyGEN Biotech, Nanjing, China) according to the manufacturer’s instructions. Equivalent amounts of protein were separated by SDS-PAGE and blotted onto polyvinylidene fluoride membranes (Bio-Rad). […]
# [2] = tested on: CTX-immunosuppressed murine model; assay: Body weight and immune organ indices in CTX-immunosuppressed mice; assay type: in vivo, BALB/c mice; details: CTX 80 mg/kg i.p. 3 days, peptide 10 mg/kg i.p. days 4-10, n = 12; for bodyweight: CTX group vs control
# Experimental: BALB/c mice (female, 6–8 weeks; Charles River, Beijing, China) used in this study were maintained in a specific-pathogen-free facility (55 ± 10% humidity and 22 ± 1°C) during the experiments. These experiments were conducted with approval from the Institutional Animal Care and Use Committee of China Agricultural University (certificate of the Beijing Laboratory Animal employee, ID: 18086).
# After a 7-day adaptation period, the mice were randomly divided into five groups (n = 12 in each group): (1) control group: physiological saline was injected intraperitoneally once daily; (2) cyclophosphamide (CTX) group: CTX (80 mg/kg mouse weight; Sigma-Aldrich, St. Louis, MO, United States) was injected intraperitoneally once daily for the first 3 days. […] From days 4 to 10, peptide (10 mg/kg mouse weight) was injected intraperitoneally into mice once daily. Twenty-four hours after the last drug administration, all the mice were weighed and then euthanized, and their tissues and blood were collected for further study. The body weight index was calculated according to the formula:
# Index(%)=finalbodyweight-initalbodyweight/initialbodyweight×100
# The thymus and spleen indices were measured by the following formula:
# Index(mg/g)=weightofthymusorspleen/bodyweight
# [3] = tested on: serum TNF-α, IL-6, and IL-1β; assay: Serum cytokines by ELISA in CTX-treated mice; assay type: in vivo, BALB/c mice; details: CTX 80 mg/kg i.p. 3 days, peptide 10 mg/kg i.p. days 4-10, three biological replicates
# Experimental: as §1
# (§2) Serum was collected from blood and then assayed by ELISA kits according to the protocol supplied by the manufacturer (eBioscience, San Diego, United States) to determine the secretion of IgG, IgA, IgM, TNF-α, IL-6, and IL-1β.
# [4] = tested on: MHC class II, mouse PBMCs; assay: DC maturation: MHC-II expression by flow cytometry; assay type: in vivo, BALB/c mice; details: CTX 80 mg/kg i.p. 3 days; peptide 10 mg/kg i.p. days 4-10; three biological replicates
# Experimental: as §1
# Mouse peripheral blood mononuclear cells (PBMCs) were obtained from the different groups of mice through Ficoll density gradient centrifugation. The cells were resuspended in PBS with 5% FBS and incubated with 10% (v/v) normal goat serum for 15 min at 4°C. The cells were combined with FITC-conjugated antibodies specific for MHC class II (MHC-II; BD Pharmingen, United States). The surface expression of MHC-II was determined by flow cytometry.
# [5] = tested on: T lymphocyte subpopulations (CD4 +, CD8 +), mouse peripheral blood; assay: Peripheral blood T lymphocyte subpopulations by flow cytometry; assay type: in vivo, BALB/c mice; details: CTX 80 mg/kg i.p. 3 days; peptide 10 mg/kg i.p. days 4-10; three biological replicates
# Experimental: as §1
# Erythrocytes were aseptically obtained from the different groups of mouse peripheral blood and lysed with RBC lysis buffer. The remaining cells were washed with PBS and resuspended in PBS. The cells were combined with peridinin-chlorophyll-protein complex (PerCP)-conjugated anti-mouse CD3 +, allophycocyanin (APC)-conjugated anti-mouse CD4 +, and fluorescein isothiocyanate (FITC)-conjugated anti-mouse CD8 + (BD Pharmingen, United States) for 30 min at 4°C. The T lymphocyte subpopulations were analyzed by flow cytometry.
# serum IgA, IgG, and IgM = assay: Serum immunoglobulins by ELISA in CTX-treated mice; assay type: in vivo, BALB/c mice; details: CTX 80 mg/kg i.p. 3 days, peptide 10 mg/kg i.p. days 4-10, three biological replicates
# Experimental: as §1, §2
# RAW264.7 cells = assay: In vitro immunomodulatory activity: cytokine secretion by RAW264.7 cells (ELISA); assay type: cell-based, murine; details: 10 μg/mL, 12 h, 37°C, ELISA; three independent experiments
# Experimental: RAW264.7 cells were seeded at a density of 1.0 × 10^6 cell/mL and treated with (10 μg/mL) or without peptides in each well of a 6-well plate for 12 h at 37°C in a humidified incubator with 5% CO2. After treatment, TNF-α, IL-6 and IL-1β secretion in the cell supernatants was assessed using ELISA kits according to the manufacturer’s instructions.
# TLR2, RAW264.7 cells = assay: TLR2 blocking experiment (anti-mouse TLR2 C9A12, then LTPa); assay type: cell-based; details: LTPa 10 μg/mL, 24 h; with or without TLR2 mAb (C9A12) 1 h before; ELISA
# Experimental: For TLR2 blocking experiments, RAW264.7 cells were cultured in 24-well plates overnight at 37°C. The mouse IgG2a isotype control antibody or anti-mouse TLR2 (C9A12; InvivoGen, San Diego, CA, United States) was added to the cell cultures 1 h before being treated with LTPa for 24 h at 37°C. Then, the levels of TNF-α, IL-6, and IL-1β in the culture supernatant were analyzed.
# [6] = tested on: immunoregulatory mediators, proinflammatory cytokines, and chemokines; design: method as in 4 sources, ref Scott et al., 2002; Tjabringa et al., 2003; Bowdish et al., 2004 ||| ref Mookherjee et al., 2006; Molhoek et al., 2009 ||| ref Li et al., 2006; Tan et al., 2017 ||| ref Wei et al., 2018; details: cited from earlier work
# [7] = ref Anders et al., 2018; cited from earlier work
# [8] = cited from earlier work
# Description: TP5 plays a vitally important role in the process of immune enhancement.
# TLR2 = details: cited from earlier work
# Description: Therefore, LL-37 could prevent or attenuate immunosuppression.
# thymic atrophy = tested on: thymic atrophy; design: method as in Goldstein et al., 1979; Singh et al., 1998; details: ref Goldstein et al., 1979; Singh et al., 1998; cited from earlier work
molecule,measurement,setting,value
"O=P1(N(CCCl)CCCl)NCCCO1 (centres unmarked) [CTX, cyclophosphamide, reference compound]","expression levels of TLR2, MyD88, and TRAF6",[1],"significantly decreased the expression levels of TLR2, MyD88, and TRAF6"
same,"phosphorylation of IKK-β, IκB-α, and NF-κB",[1],significantly decreased
same,spleen index,[2],significantly decreased
same,thymus index,[2],significantly decreased
same,bodyweight,[2],significant decrease in the bodyweight
same,serum IL-1β level,[3],significantly decreased
same,serum IL-6 level,[3],significantly decreased
same,serum TNF-α level,[3],significantly decreased
same,expression of MHC-II,[4],significantly decreased
same,proportions of CD4 + and CD8 + T lymphocytes,[5],remarkably reduced the proportions of CD4 + and CD8 + T lymphocytes
same,serum IgA level,"serum IgA, IgG, and IgM",significantly reduced
same,serum IgG level,"serum IgA, IgG, and IgM",significantly reduced
same,serum IgM level,"serum IgA, IgG, and IgM",significantly reduced
"FKRIVQRIKDFLRRKDVT [LTPb, hybrid peptide combining LL-37b and TP5]",IL-1β secretion,RAW264.7 cells,remarkable increases
same,IL-6 secretion,RAW264.7 cells,remarkable increases
same,TNF-α secretion,RAW264.7 cells,remarkable increases
TLR2 mAb: anti-mouse TLR2 (C9A12; InvivoGen) [reference compound],"TNF-α, IL-6, and IL-1β production","TLR2, RAW264.7 cells","significantly inhibited the TNF-α, IL-6, and IL-1β production induced by LTPa"
"IGKEFKRIVQRIKDFLRNLVPRTE [LL-37 (13–36), characteristic fragment of LL-37]",immunoregulatory activity,"[6]; ref Mookherjee et al., 2006, Molhoek et al., 2009",robust immunoregulatory activity
"RKDVT FKRIVQRIKDFLR [TPLb, hybrid peptide combining TP5 and LL-37b]",IL-1β secretion,RAW264.7 cells,no significant increases
same,IL-6 secretion,RAW264.7 cells,no significant increases
same,TNF-α secretion,RAW264.7 cells,no significant increases
"FKRIVQRI KDFLR [LL-37 (17–29), characteristic fragment of LL-37]",immunoregulatory activity,"[6]; ref Li et al., 2006, Tan et al., 2017",robust immunoregulatory activity
"LLGDFFRKSKEKIGKEFKRIVQRIKDFLRNLVPRTES [LL-37, human cationic host-defense peptide; parental peptide]",cytotoxicity,[7],hampered by its cytotoxicity
same,bodyweight,[2],improved bodyweight rapidly
same,half-life,"[8]; ref not separately given (sentence cites Anders et al., 2018)",long half-life
same,innate immune response by binding to TLR2,"TLR2; ref Mansour et al., 2014, Zhang et al., 2016, Agier et al., 2018",robust innate immune response by binding to TLR2
same,"production of immunoregulatory mediators, proinflammatory cytokines, and chemokines","[6]; ref Scott et al., 2002, Tjabringa et al., 2003, Bowdish et al., 2004","stimulates the production of various immunoregulatory mediators, proinflammatory cytokines, and chemokines"
"IGKEFKRIVQRIKDFLRNLRKDVT [LTPc, hybrid peptide combining LL-37c and TP5]",IL-1β secretion,RAW264.7 cells,remarkable increases
same,IL-6 secretion,RAW264.7 cells,remarkable increases
same,TNF-α secretion,RAW264.7 cells,remarkable increases
"RKDVTIGKEFKRIVQRIKDFLRNLVPRTE [TPLa, hybrid peptide combining TP5 and LL-37a]",IL-1β secretion,RAW264.7 cells,no significant increases
same,IL-6 secretion,RAW264.7 cells,no significant increases
same,TNF-α secretion,RAW264.7 cells,no significant increases
"RKDVTIGKEFKRIVQRIKDFLRNL [TPLc, hybrid peptide combining TP5 and LL-37c]",IL-1β secretion,RAW264.7 cells,no significant increases
same,IL-6 secretion,RAW264.7 cells,no significant increases
same,TNF-α secretion,RAW264.7 cells,no significant increases
"RKDVT [TP5, Thymopentin, Arg32–Tyr36 fragment derived from thymopoietin; parental peptide]",bodyweight,[2],improved bodyweight rapidly
same,half-life,[8],short half-life
same,restoration of thymic atrophy,thymic atrophy,able to restore the thymic atrophy induced by immunosuppressants
same,TLR2 binding,"TLR2; ref Li et al., 2013",exert its immunoregulatory activity by binding TLR2
"IGKEFKRIV QRIKDFLRNL [LL-37 (13–31), characteristic fragment of LL-37]",immunoregulatory activity,"[6]; ref Wei et al., 2018",robust immunoregulatory activity
